Read-outs that look alike come from different tables or passages of the source.
Experiments:
PC-3.Sluc cells tumors = assay: PC-3.Sluc tumor xenografts in Balb/c nu/nu mice, light emission (RLUs); type: in vivo; conditions: doxorubicin alone i.v., 5 mg/Kg, once a week; 56 days
Protocol: For the purpose of determining if Varubin has an in vivo antitumor activity, its effects in mice having tumors formed from PC-3 cells were analyzed. The experimental tumors were formed by means of the intramuscular inoculation of PC-3.Sluc cells. The latter are PC-3 prostate cells in which they have been integrated by means of transfecting plasmid pRC/CMV-luc, which expresses the firefly (Photinus pyralis) luciferase gene in mammalian cells q. The incubation of the PC-3.luc cells with D-luciferin, a luciferase substrate, produces light, which can be quantified in an absolute manner (number of photons) either by means of a luminometer or by means of detection with a CCD (charge-coupled device) camera. The latter process further allows representing in real time images of the location of the tumor cells in the inoculated animals, as well as the tumor size, since the intensity of the light (number of photons) emitted in the presence of luciferin is directly proportional to the number of PC-3.luc cells.
For these studies, 24 male Balb/c nu/nu mice (Charles River Laboratories) of an age of 6 weeks were used. These animals were kept in a pathogen-free environment at all times, having been kept in the animal housing facility for 1 week after they were received, before the experimental handling. After being anesthetized by means of an intraperitoneal (i.p.) injection of a mixture at equal parts of 6 mg/Kg of droperidol (Roche, Basel, Switzerland) and 12 mg/Kg of midazolam (Rovi S.A, Madrid, Spain), intramuscular (i.m.) injections were performed both in the right leg and in the left leg of each animal of 1×10^6 PC-3.Sluc cells, suspended in 100 μL of fetal bovine serum-free culture medium. The development of tumors in the inoculation sites was allowed for 2 weeks, after which a first measurement of photons emitted was made and a first capture of images with an ORCA-2BT Imaging System instrument (Hammamatsu Photonics) provided with a C4742-98-LWG-MOD model CCD camera (cooled at −80° C.) was done at a resolution of 512×512 pixels. […] Four minutes later, photons were detected and quantified for 5 minutes in the instrument described above. […] The quantification and the analysis of photons were performed with the aid of the image analysis program WASABI (Hamamatsu Photonics). […] For the graphic representations, the quantitative data (RLUs) were standardized, for each tumor, in relation to the RLUs of day 0 of treatment.
The 24 mice, having luminescent tumors in both legs, were included in 4 experimental groups: (1) Control group, in which an intravenous (i.v.) injection of 100 μL of phosphate buffered saline pH 7.4 (PBS) and 50 μL of intratumoral (i.t.) PBS was performed. […] The light emission of the tumors was analyzed throughout 56 days from the start of the treatment.

PC-3 cells = assay: CyQuant cell count, sensitization to doxorubicin; type: cell-based, human; conditions: Homo sapiens
Protocol: The addition of 100 μM of Ia reduced the IC50 of doxorubicin to 0.1 μM for PC-3 cells and the IC50 of etoposide to 0.04 μM for HeLa cells. Therefore, the treatment with 100 μM of compound Ia causes a sensitization to the cytotoxic effects of doxorubicin of 5 times (PC-3 cells) and a sensitization to the cytotoxic effects of etoposide of 30 times (HeLa cells).

HeLa cells = assay: CyQuant cell count, sensitization to etoposide; conditions: Homo sapiens, HeLa, 24 h, read-out: IC50 for etoposide

| SMILES | tumor growth (RLUs) (PC-3.Sluc cells tumors) | IC50 (PC-3 cells; 72 hours of treatment, doxorubicin alone, read-out: IC50 for doxorubicin) [nM] | IC50 (PC-3 cells; plus 100 μM of Ia, read-out: IC50 of doxorubicin with addition of Ia) [nM] | IC50 (HeLa cells) [nM] |
| --- | --- | --- | --- | --- |
| COc1cccc2c1C(=O)c1c(O)c3c(c(O)c1C2=O)C[C@@](O)(C(=O)CO)C[C@@H]3O[C@H]1C[C@H](N)[C@H](O)[C@H](C)O1 [doxorubicin] | hardly experienced growth | ~500 | 100 |  |
| COc1cc([C@@H]2c3cc4c(cc3[C@@H](O[C@@H]3O[C@@H]5CO[C@@H](C)O[C@H]5[C@H](O)[C@H]3O)[C@H]3COC(=O)[C@H]23)OCO4)cc(OC)c1O [etoposide, reference compound] |  |  |  | ~1250 |
